Earlier results, collected in patent publication US20210008209A1, “COMBINATION THERAPY FOR TTR AMYLOIDOSIS” (Corino Therapeutics, Inc., priority 2018, published 2021).

Legend:
TTR = target: T1, TTR (Homo sapiens, UniProt P02766)
T1 construct: host or cells: human plasma

TTR native tetramer [1] = conditions: mice
TTR native tetramer [2] = target: T2, TTR native tetramer (Homo sapiens, UniProt P02766); conditions: humans
T2 construct: host or cells: humans (in vivo)

## Cc1ccc(C(=O)c2cc(O)c(O)c([N+](=O)[O-])c2)cc1 [Tolcapone, tolcapone]
TTR
  binding to TTR in human plasma: binds specifically to TTR
TTR native tetramer [1]
  stabilization of the native tetramer in vivo: stabilizes the native tetramer
TTR cytotoxicity
  TTR cytotoxicity: inhibits TTR cytotoxicity
TTR native tetramer [2]
  stabilization of the native tetramer in vivo: stabilizes the native tetramer
